According to PMC7616174, “Development of Novel 4-Arylpyridin-2-one and 6-Arylpyrimidin-4-one Positive Allosteric Modulators of the M1 Muscarinic Acetylcholine Receptor” (ChemMedChem, 2020):

Target: T1, hM1 mAChR (Homo sapiens, UniProt P11229)
T1 construct: expressed in transfected cells
T1 sequence (P11229 1-460): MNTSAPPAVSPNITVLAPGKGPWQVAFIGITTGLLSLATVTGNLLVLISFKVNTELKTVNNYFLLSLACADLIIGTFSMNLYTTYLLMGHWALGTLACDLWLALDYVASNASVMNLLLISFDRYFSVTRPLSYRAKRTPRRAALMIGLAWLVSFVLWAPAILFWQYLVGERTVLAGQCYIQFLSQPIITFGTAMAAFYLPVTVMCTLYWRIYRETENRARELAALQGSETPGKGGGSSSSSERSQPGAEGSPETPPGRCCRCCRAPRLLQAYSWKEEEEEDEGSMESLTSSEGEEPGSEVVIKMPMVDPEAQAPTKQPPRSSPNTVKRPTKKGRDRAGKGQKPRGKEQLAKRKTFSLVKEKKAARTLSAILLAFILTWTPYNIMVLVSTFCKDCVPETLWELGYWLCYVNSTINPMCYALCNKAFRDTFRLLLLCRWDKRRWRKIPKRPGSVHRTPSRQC
Experiment: IP1 accumulation assay (ACh concentration-response curves in absence or presence of modulator)
Assay type: cell-based
Conditions: FlpIn CHO hM1 cells, mean ± SEM, 3 experiments; for ΔpEC50 [1 μM]: change in ACh pEC50 in presence of M1 PAM compared to control curve / activation at 1 µM: 1 μM modulator; for activation at 1 µM: read-out: Δbaseline [1 μM]: change in basal response in presence of M1 PAM compared to control curve; for activation at 10 µM: read-out: Δbaseline [10 μM]: change in basal response in presence of M1 PAM compared to control curve
Protocol: Functional activity of the synthesized analogues as racemic mixtures was investigated in IP1 accumulation assays at the M1 mAChR, as described previously.[13–14] ACh concentration-response curves were generated in the absence or presence of a 1 and 10 μM concentration of each modulator. The change in baseline activity (Δbaseline) is an approximate measure of direct allosteric agonism (τB), whereas the pEC50 shift (ΔpEC50) is an approximate measure of functional cooperativity (αβ) of each modulator with ACh in the investigated signalling pathway. We aimed to identify modulators with various degrees of allosteric agonism and modulatory effects on ACh response, as these could generate distinct in vivo outcomes for applications in different conditions in the CNS or gastrointestinal (GI) tract.[[10g,h,j]]
The compounds were then fully characterised in two functional assays (Figure 2C and D); the Gq-coupled IP1 accumulation assay (Figure S2), which was used for the initial screening of the compounds, and a β-arrestin 2 recruitment assay (Figure S3). The operational efficacy (τB) values for the modulators and their functional cooperativity estimates with ACh (logαβACh) at both signalling pathways were estimated by applying an operational model of allosterism and agonism to the data [Eq. (3)],[16] and are listed in Table 5.
FlpIn CHO cells stably expressing the hM1 mAChR were seeded at 25000 per well of 96-well transparent cell culture plates and grown overnight. […] Cells were then stimulated with increasing concentration of ACh in the absence or presence of increasing concentrations of each modulator for 1 h at 37°C. […] Seven μL of cell lysates were transferred into wells of 384-well Proxiplates (Perki-nElmer Life Sciences), and IP1 levels were measured using the IP-One assay kit (Cisbio, Codolet, France). […] The signal was expressed as the HTRF ratio, interpolated from the standard curve, and normalized to the maximum response to ACh.
Changes in both baseline and pEC50 were quantified by subtracting the estimates at each M1 PAM concentrations with the control values. Propagation of the error on baseline and potency values were determined as follows [Eq. (1)]: σΔ=σPAM2+σcont.2 where σΔ is the standard error of the mean (SEM) for the change in value, and σPAM and σcont. are the SEM from the three-parameter logistic equation analysis in presence or absence of M1 PAM, respectively.
Functional interaction studies between ACh and allosteric modulators in IP1 and β-arrestin 2 recruitment assays were analysed according to a three-parameter logistic equation or the following operational model of allosterism and agonism [Eq. (3)].[16] E=Basal+(Em−Basal)([A](KB+αβ[B])+τB[B]EC50)^n/EC50n(KB+[B])^n+([A](KB+αβ[B])+τB[B]EC50)^n where Em is the maximal possible system response, and Basal is the response in the absence of agonist. [A] and [B] are concentrations of orthosteric and allosteric ligands, respectively. KB is the equilibrium dissociation constant of allosteric ligand, and EC50 is the concentration of orthosteric agonist required to achieve half maximal response. α and β represent the magnitude of the allosteric effects on orthosteric ligand affinity and efficacy, respectively; τB is the efficacy of allosteric ligand, and n is the slope factor of the transducer function that links occupancy to response.

ΔpEC50 [1 μM]: change in ACh pEC50 in presence of M1 PAM compared to control curve	ΔpEC50 [10 μM]: change in ACh pEC50 in presence of M1 PAM compared to control curve (10 μM modulator)	activation at 1 µM	activation at 10 µM (10 μM modulator)	Compound	Δbaseline [10 μM]: change in basal response in presence of M1 PAM compared to control curve (10 μM modulator)
	0.75±0.08	3.5 ± 1.9%	10.7 ± 2%	Cc1ccc(-c2ccn(C3CCCCC3O)c(=O)c2)c(OCc2ccc(-c3cnn(C)c3)cc2)c1 (centres unmarked) [Compound 7b, 1-(2-Hydroxycyclohexyl)-4-(4-methyl-2-((4-(1-methyl-1H-pyrazol-4-yl)benzyl)oxy)phenyl)pyridin-2(1H)-one]	
	0.41±0.08	-1.7%	2.8 ± 1.9%	Cc1cc(OCc2ccc(-c3cnn(C)c3)cc2)c(-c2ccn(C3CCCCC3O)c(=O)c2)cc1C (centres unmarked) [Compound 7c, 4-(4,5-Dimethyl-2-((4-(1-methyl-1H-pyrazol-4-yl)benzyl)oxy)phenyl)-1-(2-hydroxycyclohexyl)pyridin-2(1H)-one]	
0.14±0.19	0.35±0.34	12.8 ± 4.4%	45.8 ± 4.8%	Cn1cc(-c2ccc(COc3cccc(O)c3-c3ccn(C4CCCCC4O)c(=O)c3)cc2)cn1 (centres unmarked) [Compound 7g, 4-(2-Hydroxy-6-((4-(1-methyl-1H-pyrazol-4-yl)benzyl)oxy)phenyl)-1-(2-hydroxycyclohexyl)pyridin-2(1H)-one]	
	0.17±0.06	5 ± 1.7%	-1.9%	Cn1cc(-c2ccc(COc3ccccc3-c3ccn(C4CCCCC4)c(=O)c3)cc2)cn1 [Compound 13b, 1-Cyclohexyl-4-(2-((4-(1-methyl-1H-pyrazol-4-yl)benzyl)oxy)phenyl)pyridin-2(1H)-one]	
0.03±0.06	0.96±0.07	5.8 ± 1.5%	22.1 ± 1.6%	COC1CCCCC1n1ccc(-c2ccccc2OCc2ccc(-c3cnn(C)c3)cc2)cc1=O (centres unmarked) [Compound 14, 1-(2-Methoxycyclohexyl)-4-(2-((4-(1-methyl-1H-pyrazol-4-yl)benzyl)oxy)phenyl)pyridin-2(1H)-one]	
	0.27±0.06			Cn1cc(-c2ccc(COc3ccccc3-c3ccc(-c4ccccc4O)cc3)cc2)cn1 [Compound 19, 2“-((4-(1-Methyl-1H-pyrazol-4-yl)benzyl)oxy)-[1,1’:4’,1“-terphenyl]-2-ol]	
1.49±0.42		82.1 ± 3%	100%	Cn1cc(-c2ccc(COc3cccc(O)c3-c3cc(=O)n(C4CCCCC4O)cn3)cc2)cn1 (centres unmarked) [Compound 26d, 6-(2-Hydroxy-6-((4-(1-methyl-1H-pyrazol-4-yl)benzyl)oxy)phenyl)-3-(2-hydroxycyclohexyl)pyrimidin-4(3H)-one]	
0.40±0.24	0.26±0.55	53.7 ± 3.8%	72.9 ± 3.6%	COC1CCCCC1n1cnc(-c2ccccc2OCc2ccc(-c3cnn(C)c3)cc2)cc1=O (centres unmarked) [Compound 28a, 3-(2-Methoxycyclohexyl)-6-(2-((4-(1-methyl-1H-pyrazol-4-yl)benzyl)oxy)phenyl)pyrimidin-4(3H)-one]	

Continued, compound first:

Compound	ΔpEC50 [1 μM]: change in ACh pEC50 in presence of M1 PAM compared to control curve	ΔpEC50 [10 μM]: change in ACh pEC50 in presence of M1 PAM compared to control curve (10 μM modulator)	activation at 1 µM	activation at 10 µM (10 μM modulator)	Δbaseline [10 μM]: change in basal response in presence of M1 PAM compared to control curve (10 μM modulator)
4-(2-(Benzyloxy)phenyl)-1-(2-hydroxycyclohexyl)pyridin-2(1H)-one [Compound 27d]	0.75±0.06	1.83±0.11			54.6±1.9 % of ACh maximal (Emax) response
COc1cccc(OCc2ccc(-c3cnn(C)c3)cc2)c1-c1cc(=O)n([C@H]2CCCC[C@@H]2O)cn1 (racemic) [Compound 26c, 3-(2-Hydroxycyclohexyl)-6-(2-methoxy-6-((4-(1-methyl-1H-pyra-zol-4-yl)benzyl)oxy)phenyl)pyrimidin-4(3H)-one]	0.02±0.06		1.37 ± 1.6%	5.99 ± 1.7%	
Cc1ccc(OCc2ccc(-c3cnn(C)c3)cc2)c(-c2ccn(C3CCCCC3O)c(=O)c2)c1 (centres unmarked) [Compound 7a, 1-(2-Hydroxycyclohexyl)-4-(5-methyl-2-((4-(1-methyl-1H-pyrazol-4-yl)benzyl)oxy)phenyl)pyridin-2(1H)-one]		0.41±0.07	0.47 ± 2%	4.4 ± 2%	
Cn1cc(-c2ccc(COc3ccncc3-c3ccn(C4CCCCC4O)c(=O)c3)cc2)cn1 (centres unmarked) [Compound 7d, 1’-(2-Hydroxycyclohexyl)-4-((4-(1-methyl-1H-pyrazol-4-yl)benzyl)oxy)-[3,4’-bipyridin]-2’(1’H)-one]	0.04±0.09	0.21±0.10	-1.09%	1.24 ± 3%	
Cn1cc(-c2ccc(COc3cnccc3-c3ccn(C4CCCCC4O)c(=O)c3)cc2)cn1 (centres unmarked) [Compound 7e, 1-(2-Hydroxycyclohexyl)-3’-((4-(1-methyl-1H-pyrazol-4-yl)benzyl)oxy)-[4,4’-bipyridin]-2(1H)-one]	1.17±0.22	1.47±0.35	41.9 ± 4.4%	79.4 ± 2.9%	
Cn1cc(-c2ccc(Cn3cccc(-c4ccn(C5CCCCC5O)c(=O)c4)c3=O)cc2)cn1 (centres unmarked) [Compound 9, 1’-(2-Hydroxycyclohexyl)-1-(4-(1-methyl-1H-pyrazol-4-yl)benzyl)-[3,4’-bipyridine]-2,2’(1H,1’H)-dione]	0.12±0.09	0.69±0.08	5 ± 2%	5.6 ± 2%	
Cn1cc(-c2ccc(COc3ccsc3-c3cc(=O)n(C4CCCCC4O)cn3)cc2)cn1 (centres unmarked) [Compound 26b, 3-(2-Hydroxycyclohexyl)-6-(3-((4-(1-methyl-1H-pyrazol-4-yl)benzyl)oxy)thiophen-2-yl)pyrimidin-4(3H)-one]			100%	100%	
O=c1cc(-c2ccccc2OCc2ccc(-n3cccn3)cc2)ncn1C1CCCCC1O (centres unmarked) [Compound 27c, 6-(2-((4-(1H-Pyrazol-1-yl)benzyl)oxy)phenyl)-3-(2-hydroxycyclo-hexyl)pyrimidin-4(3H)-one]			100%	100%	
